The source of these data is patent publication US20070123551A1, “Use of metabotropic glutamarate receptor 5 (mglur5) antagonists for the treatment of gastrointestinal disorders” (priority 2003, published 2007).

In this experiment the test system is WKY rats. The experiment can be described thus: in vivo gastric distension model (barostat, ramp and tonic distension) in conscious WKY rats. Also noted: species or system Wistar Kyoto rats. The text has this: An in vivo gastric distension model is used as a model for functional gastrointestinal disorders, in particular for functional dyspepsia (Bayati A, Astin M, Ekman C, Mattsson H. Wistar Kyoto rats have impaired gastric adaptive accommodation in response to gastric distension. Gastroenterology 2003; 124 (4, suppl 1): W1471 (abstract)).
The gastric distension model enables detailed analysis of the physico-mechanical properties of the stomach, e.g. basal gastric tone, threshold for accommodation, accommodation rate, accommodation volume, and maximal gastric volume. […] Furthermore, it has been shown that patients with Functional Dyspepsia as well as Wistar Kyoto (WKY) rats have an impaired gastric adaptive response and also a lower total gastric volume as compared to healthy subjects and Sprague Dawley (SD) rats, respectively. In addition, the method has shown to be reproducible and reliable. Moreover, the advantage of the presently used barostat technique compared to other barostat techniques normally used in experimental clinical studies is that it is possible to discriminate between if a compound exerts its effect directly on gastric smooth muscles or if the effect involves the vagal reflex mechanism.
The rats are equipped with fistulas chronically implanted into the stomach. During gastric barostat experiments, a small inflatable plastic bag with a spherical shape is inserted through fistula into the glandular part of the stomach (middle to distal part in the rat). The experiments are performed in conscious rats. For detailed analysis of the physico-mechanical properties of the stomach, a combination of ramp and tonic distension paradigm is used. Pressure and volume data collected during experiments are saved for and further analysis.
In order to determine an animal's maximum gastric accommodation capacity, a balloon is inserted into the stomach of the animal and a four phase protocol which includes a start phase, a ramp phase, a tonic phase and an end phase is performed. A barostat system maintains the pressure by pumping air into and out of the balloon. The pressure applied to the balloon and the corresponding changes to the volume of the balloon are monitored throughout, e.g., using any barostat system known in the art (e.g., see Toma et al, Neurogastroenterol. Mot., 8, 19-28, 1996).
During the start phase a minimum distension pressure, e.g., 1 mmHg, is applied to the balloon until base line values are obtained. This is followed by a Ramp Phase. During this phase the pressure applied to the balloon is increased linearly with a constant increase in pressure to a preset maximum value. This second phase is then followed by the Tonic Phase at which the preset maximum pressure is kept constant. Finally, the pressure is rapidly dropped to the starting minimum distension pressure and this period is known as the End Phase.
To determine if an agent, e.g., a compound is useful in the treatment of FD, the maximum gastric accommodation rate in the WKY rat following administration of the compound is calculated. A compound of interest will be a compound that alters the maximum gastric accommodation rate in the animal and this is calculated by determining a difference in the maximum gastric accommodation rate before and after administration of the compound.
The Wistar Kyoto rats (WKY; M&B Denmark) are starved about 6 or 18 hours before each experiment depending on if the experiments are performed in the morning or in the afternoon. […]

Where [1] appears, read: 10 μmol/kg intravenously 3-5 min before start of ramp phase, compared to the control situation, FIG. 1.

`Cc1cccc(C#Cc2ccccc2)n1` [MPEP, 2-methyl-6-(phenylethynyl)-pyridine]: under setting [1], the “gastric volume during the ramp phase” value is given as “increase” and the “gastric volume during the tonic phase” value is given as “increase”. In addition, under “10 μmol/kg intravenously, FIG. 1”, the “accommodation rate (the slope of volume curve during the tonic phase)” value is listed as “increased”. Also, the maximum gastric volume result (10 μmol/kg intravenously, compared to the control situation, FIG. 1) is “increased”. Moreover, where the note is “10 μmol/kg intravenously, conclusion”, the accommodation capacity result is listed as “increases”.
